# “Also recorded” adds a separate entry of the source.
# Columns and labels:
# [1] = test system: C2C12 cells; assay: Malonate / 3A3OPA uptake in C2C12 cells at different pH (LC-MS/MS); format: cell-based, mouse; conditions: for intracellular uptake, effect of lowered pH: 15 min, pH 6 vs 7.4 (and 8)
# Procedure: C2C12 cells were incubated with malonate at pH 8, 7.4 or 6 and the levels within cells measured by LC-MS/MS (mean±/−S.E.M., n=4).
# C2C12 cells were treated with either malonate or 3-amino-3-oxypropanoic acid at pH 7.4 or 6 and their intracellular levels measured by LC-MS/MS (mean±/−S.E.M., n=6).
# [2] = cited from earlier work
# [3] = molecular target: T1, MCT1 (Mus musculus, UniProt P53986); assay: Malonate levels in Langendorff hearts perfused at pH 6 with DSM ± lactate or MCT1 inhibitor; design: species or system murine; conditions: pH 6, 5 min, 5 mM DSM; lactate 50 mM, AR-C141990 10 μM
# T1 construct: from tissue; host or cells: isolated Langendorff-perfused murine heart
# T1 sequence (P53986 1-493): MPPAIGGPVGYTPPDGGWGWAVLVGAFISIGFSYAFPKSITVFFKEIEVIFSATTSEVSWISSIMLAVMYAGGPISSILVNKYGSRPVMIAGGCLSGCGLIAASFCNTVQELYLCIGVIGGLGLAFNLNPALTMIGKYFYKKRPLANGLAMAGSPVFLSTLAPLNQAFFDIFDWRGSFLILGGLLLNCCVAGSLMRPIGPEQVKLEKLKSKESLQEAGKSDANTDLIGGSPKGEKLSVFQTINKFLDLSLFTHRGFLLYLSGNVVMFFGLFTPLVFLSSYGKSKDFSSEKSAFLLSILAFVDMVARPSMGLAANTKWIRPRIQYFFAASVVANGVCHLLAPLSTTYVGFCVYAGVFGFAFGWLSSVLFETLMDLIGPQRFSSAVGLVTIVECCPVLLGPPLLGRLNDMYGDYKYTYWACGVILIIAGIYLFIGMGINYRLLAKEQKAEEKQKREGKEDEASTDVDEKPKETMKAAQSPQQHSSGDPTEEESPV
# T1 sequence (P18572 140-389 partner limits assumed): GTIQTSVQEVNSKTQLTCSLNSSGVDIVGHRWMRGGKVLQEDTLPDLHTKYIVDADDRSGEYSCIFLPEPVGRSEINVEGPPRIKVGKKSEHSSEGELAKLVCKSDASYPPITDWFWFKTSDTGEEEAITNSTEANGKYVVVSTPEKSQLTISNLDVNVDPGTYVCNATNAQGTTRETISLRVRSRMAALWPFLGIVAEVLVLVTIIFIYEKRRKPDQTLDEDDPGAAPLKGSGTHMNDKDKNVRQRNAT
# Description: Malonate uptake into the Langendorff perfused heart was blocked by the MCT1 inhibitor AR-C141990, in the perfusion medium, and by excess lactate.
# [4] = cited from earlier work; remark: listed apart in the source
# [5] = test system: MCAO model; assay: Transient middle cerebral artery occlusion (MCAO) stroke model; format: in vivo, mice; conditions: i.v. for 20 min starting just prior to reperfusion; 45 min ischaemia, 2 h reperfusion
# Description: Male C57B16J mice, 6-8 weeks old, were anesthetized with 3% isoflurane and anaesthesia was maintained on 1.5-2% isoflurane. A Doppler flowmetry probe (Perimed, Sweden) was attached to the skull to continuously monitor the cerebral blood flow. Left common carotid artery (CCA) and left external carotid artery were exposed and permanently ligated. Left internal common carotid artery was clamped temporarily. Next, an incision was made on CCA and a filament with a silicon tip (0.22 mm in diameter, 2-3 mm in length, Doccol, USA) was inserted and guided forward into internal carotid artery until it reached middle cerebral artery (MCA). The occlusion of MCA was confirmed by seeing at least 70% drop in cerebral blood flow. […]
# At the end of reperfusion, mice were sacrificed by cervical dislocation; brain was collected and sliced at 2 mm thicknesses and stained with 2% triphenyltetrazolium chloride in saline at 37 C for 10-15 min. […] The healthy tissue area (red-stained) in both hemispheres was measured using ImageJ. The infarct volume % was calculated by first calculating the volume of healthy tissue in each hemisphere (Σ area of each slice×thickness of slice), then by the formula: ((volume of healthy tissue in uninjured hemisphere−volume of healthy tissue in injured hemisphere)÷volume of healthy tissue in uninjured hemisphere)×100.
# [6] = test system: H9c2 myoblasts; assay: Intracellular malonate and succinate in H9c2 myoblasts at different pH (LC-MS/MS); format: cell-based; conditions: H9c2, DSM 1 or 5 mM, 15 min
# [7] = test system: murine Langendorff perfused heart; assay: Malonate uptake in Langendorff-perfused hearts (pH- and ischaemia-dependence, LC-MS/MS)
# Procedure: Malonate (5 mM) was infused into Langendorff perfused mouse hearts at either pH 7.4 or 6. The heart flushed to remove vessel malonate and malonate levels measured by LC-MS/MS (mean±/−S.E.M., n=4).
# Langendorff mouse hearts were reperfused with malonate (5 mM) after either 0, 5, 10, or 20 min ischaemia). The heart flushed to remove vessel malonate and malonate levels measured by LC-MS/MS (mean±/−S.E.M., n=4-5).
# [8] = test system: C2C12 mouse myoblast cells; assay: Malonate uptake in vitro in C2C12 cells (dose and time course); format: cell-based; conditions: for malonate uptake into cells (words): 0.25, 1 or 5 mM, 0 to 240 min; for intracellular malonate concentration: 5 min, cell volume 260 mg protein/ml
# Procedure: We first explored whether malonate could be taken up by cells in culture. C2C12 mouse myoblast cells were plated at 300,000 cells/well and adhered overnight. […] Cells were extracted for mass spectrometry with 500 μl extraction buffer (50% methanol, 30% acetonitrile and 20% water) with 1 nmol ^13C-malonate internal standard centrifuged to remove insoluble debris.
# [9] = test system: murine LAD MI model; assay: Infarct size in murine LAD MI model (TTC staining); format: in vivo
# Procedure: Mice were subjected to left anterior descending coronary artery ligation heart attack model (30 min ischaemia, 2 hr reperfusion) and malonate infused either before the onset of ischaemia or during initial reperfusion. Infarct size was determined by staining the heart with triphenyltetrazolium chloride (mean±/−S.E.M., n=5-8).
# Thus, malonate was confirmed to be cardioprotective when administered at the point of reperfusion after ischaemia.
# Cyclosporin A is a known inhibitor of the mitochondrial permeability transition pore (PTP).
# [10] = Malonate uptake in vivo, tissue levels after tail vein bolus; design: species or system mouse; conditions: 160 mg/kg tail vein bolus, 5 min
# Procedure: For tissue analysis, tissues were weighed and extracted in 25 μl/mg extraction buffer containing internal standard and homogenised in a Precellys 24 homogeniser. Homogenates were centrifuged to remove insoluble debris. Extracts were analysed by LC-MS/MS and the levels of malonate assessed by interpolation of a malonate standard curve.
# [11] = test system: Langendorff heart; assay: Lactate levels in the Langendorff heart after 20 min ischemia and 1 min reperfusion; conditions: 5 mM DSM, 20 min ischemia
# Description: Compared to reperfusion alone, lactate levels decreased in the malonate-treated hearts.
# [12] = pKa and ionisation state; format: physicochemical; conditions: pH 6.4
# Description: In 3A3OPA, one carboxylic acid has been replaced with a neutral amido group leaving a single carboxylic acid of pKa˜4.75. Thus, at pH 7.4 3A3OPA resembles the monocarboxylate form of malonate.
compound,measurement,setting,value
"NC(=O)CC(=O)O [3A3OPA, 3-amino-3-oxypropanoic acid]",uptake into cells at pH 7.4 compared with malonate,"[1]; 5 mM, pH 7.4",more 3A3OPA being taken up into cells at pH 7.4 than malonate
same,"intracellular uptake, effect of lowered pH",[1],changed negligibly
same,pKa of single carboxylic acid,[2],~4.75
CC(C)Cn1c(=O)n(C)c(=O)c2c(C(=O)N3CC[C@@H](O)C3)c(Cc3ccnc4ccccc34)sc21 [AR-C141990],effect on malonate uptake into the Langendorff perfused heart,[3],blocked
"COC(=O)CC(=O)OC [DMM, dimethyl malonate]",protection against IR injury,[4]; administered prior to and throughout ischaemia (WO 2016/001686),protective
same,necrotic brain infarct volume,[5],not to be protective; also recorded: no significant difference
"O=C([O-])CC(=O)[O-].[Na+].[Na+] [DSM, disodium malonate]",levels of malonate in the cell at pH 6 vs pH 7.4 or 8,[6],significantly higher
same,succinate levels (malonate-dependent SDH inhibition) at low pH,[6],greater succinate accumulation
same,malonate uptake in heart after ischaemia,"[7]; 0, 5, 10 or 20 min ischaemia, reperfused with 5 mM DSM pH 7.4",ischemic time-dependent uptake
same,"malonate uptake in heart, infused at low pH vs neutral pH","[7]; 5 mM DSM, pH 6 vs pH 7.4",greatly enhanced
same,intracellular malonate levels,"[8]; 5 mM DSM, after 5 min",~2 nmol/mg protein
same,malonate uptake into cells (words),[8]; listed as Malonate,both dose and time-dependent
same,malonate uptake into cells (words),[8]; listed as disodium malonate,rapid malonate uptake
same,intracellular malonate concentration,[8]; 250 μM malonate,about 50 μM
same,intracellular malonate concentration,[8]; 5 mM malonate,~500 µM
same,intracellular malonate levels,[8]; incubated with 250 μM disodium malonate,0.2-0.4 nmol/mg protein
same,protection against myocardial IR injury,[4]; small animal ex vivo and large animal models,protective
same,infarct size (cardioprotection),[9]; 160 mg/kg infusion at reperfusion,cardioprotective
same,"infarct size, cardioprotection in combination with cyclosporin A",[9]; DSM 160 mg/kg with cyclosporin A 10 mg/kg at reperfusion,additive to cyclosporin A alone
same,"tissue levels of malonate, brain",[10],uptake in the brain
same,"tissue levels of malonate, heart",[10],significant amounts
same,"tissue levels of malonate, kidney",[10],particularly high
same,"tissue levels of malonate, liver",[10],significant amounts
same,lactate levels compared to reperfusion alone,[11],decreased
same,"intracellular uptake, effect of lowered pH",[1],greatly enhanced
same,fraction in monocarboxylate form,[12],approximately 16%
same,necrotic brain infarct volume,[5],decreased
CC(O)C(=O)O (stereo not shown) [lactate],effect on malonate uptake into the Langendorff perfused heart,[3],blocked

# From patent US20240252457A1, “Treatment or Prevention of Ischaemia Reperfusion Injury” (Cambridge Enterprise Limited, priority 2021, published 2024)
